Test results: patent US20050009772A1, “Methods and compositions for the treatment of glaucoma and other retinal diseases” (The Regents of the University of California, priority 2003, published 2005)
“Also recorded” adds a separate entry of the source.

What was measured:
[1] = system: HSP72; experiment: Immunohistochemical staining for HSP72 on retinal sections after GGA administration (Experiment 1); format: in vivo, rat
Procedure: Three experiments are summarized here, and details are provided in the subsequent sections. […] For Western blotting, twelve rats were equally divided into 6 groups. […] Enriched RGC fraction was harvested from 2 retinas of each group and used for Western blot analysis. The same experiment for isolation of RGCs and Western blotting was repeated with the other 2 retinas-from each group.
Animals were deeply anesthetized with intramuscular injections of 0.8 ml/kg of a cocktail of 5 ml ketamine (100 mg/ml), 2.5 ml xylazine (20 mg/ml), 1.0 ml acepromazine (10 mg/ml), and 1.5 ml normal saline. Then they were transcardially perfused with 4% paraformaldehyde in 0.1 M phosphate buffer. The enucleated eyeballs were immersed in fixative for 1 hour, bisected and post-fixed overnight. The eyes were embedded in paraffin and sectioned at a four-μm thickness along the vertical meridian through the optic nerve head. After deparaffinization and hydration, a species-specific Vectastain ABC kit (Vector Laboratories, Inc., Burlingame, Calif.) was chosen to match the species of primary antibody and the manufacturer's procedures were followed. The tissue sections were incubated with blocking serum solution in PBS for 1 hour. This was followed by incubation with primary antibody at 4° C overnight. The antibodies were mouse monoclonal antibody against HSP72 (1:500; StressGen Biotechnologies Corp., Victoria, British Columbia, Canada), goat polyclonal antibody against HSP72 (1:1000; Santa Cruz Biotechnology, Inc., Santa Cruz, Calif.) or rat monoclonal antibody against HSC70 (1:200; StressGen). Antigen-antibody complexes were detected by an avidin-biotin-peroxidase technique (Vectastain ABC Kit; Vector Laboratories). Diaminobenzidine (DAB) was used to produce a brown color in the target tissue and the slides were permanently mounted. As a negative control, alternate retinal section was incubated with blocking solution by replacing the primary antibody or with anti-rabbit secondary antibody by replacing the original secondary antibody.

[2] = system: optic nerve axons; experiment: Grading of optic nerve injury in rat glaucoma model (Experiment 2); format: in vivo
Procedure: GGA was then given twice a week at the same dose until euthanasia. Sustained elevation of intraocular pressure (IOP) was maintained by performing trabecular laser photocoagulation three weeks after the first photocoagulation. […] IOP and body weight were measured once a week. After 5 weeks of IOP elevation, the number of retrogradely labeled RGCs with dextran tetramethylrhodamine (DTMR) was counted (n=53). The grading of optic nerve injury and the counting of cresyl violet-stained cells in the retinal ganglion cell layer (RGCL) was also performed (n=54).
Rats were anesthetized with intramuscular injections of 0.8 ml/kg of the anesthetic cocktail described above. A previously published procedure was modified to produce chronic moderately elevated IOP unilaterally, while the untreated contralateral eye served as the comparative control.40 Animals were injected intracamerally with 10 μl of 35% India ink (Becton Dickinson, Cockeysville, Md.) in 0.01 M PBS after removing a similar volume of aqueous. At the end of the procedure, Tobrex ophthalmic ointment (tobramycin 0.3%; Alcon, Fort Worth, Tex.) was applied topically. Five days after intracameral injection of India ink, a dark band at the limbus was noted due to the aggregation of carbon particles in the trabecular meshwork.38 After anesthesia, approximately 200 laser burns were delivered ab externo to the pigmented trabecular band at laser settings of 200 μm diameter, 200 mW power and 0.2 seconds duration. Three weeks after the first laser treatment, another trabecular laser photocoagulation was performed without further injection of ink.
To examine the effect on RGC axons, optic nerve injury was evaluated with an established method.41 After 5 weeks of IOP elevation, deeply anesthetized animals were perfused with a solution of 4% paraformaldehyde and 1% glutaraldehyde. Optic nerve segments […] behind the globe were dissected, washed, postfixed with 5% glutaraldehyde, dehydrated, and embedded. One μm-thick sections were cut and stained with 1% toluidine blue. Optic nerve cross sections were examined under light microscopy and assessed by three independent masked observers. A graded scale of optic nerve injury ranging from 1 (normal) to 5 (total degeneration) was used. Data obtained from three observers were averaged and presented as mean ±SEM.

[3] = system: HSC70; experiment: Quantitative immunohistochemical analysis of HSC70 in the RGCL after 1 week of IOP elevation (Experiment 3); format: in vivo, rat; settings: among all the groups, 1 week after laser
Procedure: TdT-mediated biotin-dUTP nick end labeling (TUNEL) and immunohistochemical analysis for HSP72 and HSC70 were performed.
Animals were deeply anesthetized with intramuscular injections of 0.8 ml/kg of a cocktail of 5 ml ketamine (100 mg/ml), 2.5 ml xylazine (20 mg/ml), 1.0 ml acepromazine (10 mg/ml), and 1.5 ml normal saline. Then they were transcardially perfused with 4% paraformaldehyde in 0.1 M phosphate buffer. The enucleated eyeballs were immersed in fixative for 1 hour, bisected and post-fixed overnight. The eyes were embedded in paraffin and sectioned at a four-μm thickness along the vertical meridian through the optic nerve head. […] Antigen-antibody complexes were detected by an avidin-biotin-peroxidase technique (Vectastain ABC Kit; Vector Laboratories). […]
Immunohistochemical staining was analyzed quantitatively with a computer-assisted image processing unit (Image-Pro Plus software, Media Cybernetics, Silver Spring, Md.) and the “count-measure” function. […] For each digital image, all individual cells in the RGCL were marked by a masked examiner and the optical density of each cell was measured. The relative intensities of cells in the RGCL were measured and averaged (±SEM) to yield a single value representing one retina.

Geranylgeranylacetone [GGA]
immunoreactivity of HSP72 in other retinal layers ([1]; GGA i.p. 7 days): No remarkable change
immunoreactivity of HSP72 in cells in the RGCL (immunohistochemical staining) ([1]; GGA i.p. 7 days vs vehicle-treated): Increased immunoreactivity of HSP72
levels of HSP72 in RGCs (immunohistochemical staining) ([1]; oral daily dose of GGA for one week, assayed one week after last oral administration): increased levels of HSP72
effect on optic nerve injury / axonal damage (in words) ([2]; 5 weeks of IOP elevation): inhibited; also recorded: significantly ameliorated
optic nerve injury grade ([2]; 5 weeks of sustained IOP elevation, scale 1 (normal) to 5 (total degeneration)): 1.33±0.05
optic nerve injury (in words) ([2]; contralateral control eyes): no statistically significant optic nerve injury
optic nerve injury grade ([2]; contralateral control eyes, scale 1 to 5): 1.11±0.02
expression of HSC70 in RGCL (immunoreactive intensity) [3]: no statistically significant difference; also recorded: No change in HSC70 immunoreactivity
